In patent US10407407B2, “Benzoimidazole derivatives as PAD4 inhibitors” (GLAXOSMITHKLINE INTELLECTUAL PROPERTY DEVELOPMENT LIMITED, priority 2015, dated 2019):
Several values for one entry are separate records, joined by “and”; a condition that tells them apart may be missing. Equal entries are not always repeated.

How the values were obtained:
[1] = biological target: T1, Recombinant human PAD4 (residues 1-663) (Homo sapiens, UniProt Q9UM07); assay: PAD4 enzyme assay (FLINT NH3 release, BAEE substrate; conditions A or B); type: biochemical; conditions: PAD4 enzyme assay above or similar assays; read-out: mean pIC50 (converted)
T1 construct: Recombinant human PAD4 (residues 1-663) was expressed in E. coli as an N-terminal GST-tagged fusion protein; GST (N, cleaved yes); made in house; host or cells: E. coli
Method: During purification of the protein, the GST tag was removed by cleavage with PreScission Protease (GE Healthcare). Activity of the final PAD4 enzyme and batch consistency was determined by employing the enzyme in the FLINT NH3 release assay in the presence of N-a-benzoyl-L-arginine ethyl ester (BAEE) substrate and measuring the levels of NH3 release at a known substrate/enzyme concentration.
(§1) 8 μl of PAD4 enzyme diluted to an assay concentration of 75 nm in assay buffer (a): (100 mM HEPES, 50 mM NaCl, 2 mM DTT and 0.6 mg/ml BSA pH 8), or in assay buffer (b): (100 mM HEPES, 50 mM NaCl, 2 mM DTT, 7.5% glycerol and 1.5 mM CHAPS pH 8), and added to wells containing 0.1 μl of various concentrations of compound or DMSO vehicle (0.8% final) in a Greiner high volume 384 well black plate. Following 30 mins pre-incubation at rt, the reaction was initiated by the addition of 4 μl of substrate buffer containing 3 mM N-a-benzoyl-L-arginine ethyl ester (BAEE), 100 mM HEPES, 50 mM NaCl, 600 uM CaCl2 (2H2O) and 2 mM DTT, pH 8.0. The reaction was stopped after 100 mins with the addition of 38 μl stop/detection buffer containing 50 mM EDTA, 2.6 mM phthalaldehyde and 2.6 mM DTT.
as §1, with “of 30 nM” for “of 75 nm”, “buffer” for “buffer (a):”, “BSA” for “BSA pH 8), or in assay buffer (b): (100 mM HEPES, 50 mM NaCl, 2 mM DTT, 7.5% glycerol and 1.5 mM CHAPS”, “after 60” for “after 100”

[2] = biological target: T2, Recombinant human PAD2 (residues 1-665) (Homo sapiens, UniProt Q9Y2J8); assay: PAD2 enzyme assay (FLINT NH3 release, BAEE substrate); type: biochemical; conditions: PAD2 enzyme assay above or similar assays; to assess selectivity for PAD4 over PAD2; read-out: mean pIC50 (converted)
T2 construct: Recombinant human PAD2 (residues 1-665) was expressed in baculovirus-infected Sf9 insect cells; 6His-FLAG (N); made in house; host or cells: baculovirus-infected Sf9 insect cells
Method: Activity of the final product was determined using a FLINT NH3 release assay.
8 μl of PAD2 enzyme diluted to an assay concentration of 30 nM in assay buffer (100 mM HEPES, 50 mM NaCl, 2 mM DTT, 7.5% glycerol and 1.5 mM CHAPS pH 8), and added to wells containing 0.1 μl of various concentrations of compound or DMSO vehicle (0.8% final) in a Greiner high volume 384 well black plate. […] The reaction was stopped after 90 mins with the addition of […] stop/detection buffer containing 50 mM EDTA, 2.6 mM phthalaldehyde and 2.6 mM DTT.

T1 sequence (Q9UM07 whole entry, the tested form may be a part): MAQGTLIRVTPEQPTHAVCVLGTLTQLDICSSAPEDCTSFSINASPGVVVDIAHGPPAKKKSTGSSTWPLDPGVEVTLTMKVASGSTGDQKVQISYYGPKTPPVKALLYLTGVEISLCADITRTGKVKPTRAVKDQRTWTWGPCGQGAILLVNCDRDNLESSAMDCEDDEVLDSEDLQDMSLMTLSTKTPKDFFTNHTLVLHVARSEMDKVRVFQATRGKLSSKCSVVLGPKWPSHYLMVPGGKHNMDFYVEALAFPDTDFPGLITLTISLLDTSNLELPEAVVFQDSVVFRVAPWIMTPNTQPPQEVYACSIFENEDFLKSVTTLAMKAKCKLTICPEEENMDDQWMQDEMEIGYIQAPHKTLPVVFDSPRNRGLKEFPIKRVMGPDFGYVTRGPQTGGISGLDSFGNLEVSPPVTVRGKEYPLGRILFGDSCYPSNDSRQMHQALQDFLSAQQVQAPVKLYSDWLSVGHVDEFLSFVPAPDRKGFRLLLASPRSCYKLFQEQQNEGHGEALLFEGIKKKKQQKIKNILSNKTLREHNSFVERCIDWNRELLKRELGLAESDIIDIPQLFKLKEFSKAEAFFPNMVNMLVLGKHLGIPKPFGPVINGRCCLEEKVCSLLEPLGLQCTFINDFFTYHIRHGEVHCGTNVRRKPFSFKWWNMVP
T2 sequence (Q9Y2J8 whole entry, the tested form may be a part): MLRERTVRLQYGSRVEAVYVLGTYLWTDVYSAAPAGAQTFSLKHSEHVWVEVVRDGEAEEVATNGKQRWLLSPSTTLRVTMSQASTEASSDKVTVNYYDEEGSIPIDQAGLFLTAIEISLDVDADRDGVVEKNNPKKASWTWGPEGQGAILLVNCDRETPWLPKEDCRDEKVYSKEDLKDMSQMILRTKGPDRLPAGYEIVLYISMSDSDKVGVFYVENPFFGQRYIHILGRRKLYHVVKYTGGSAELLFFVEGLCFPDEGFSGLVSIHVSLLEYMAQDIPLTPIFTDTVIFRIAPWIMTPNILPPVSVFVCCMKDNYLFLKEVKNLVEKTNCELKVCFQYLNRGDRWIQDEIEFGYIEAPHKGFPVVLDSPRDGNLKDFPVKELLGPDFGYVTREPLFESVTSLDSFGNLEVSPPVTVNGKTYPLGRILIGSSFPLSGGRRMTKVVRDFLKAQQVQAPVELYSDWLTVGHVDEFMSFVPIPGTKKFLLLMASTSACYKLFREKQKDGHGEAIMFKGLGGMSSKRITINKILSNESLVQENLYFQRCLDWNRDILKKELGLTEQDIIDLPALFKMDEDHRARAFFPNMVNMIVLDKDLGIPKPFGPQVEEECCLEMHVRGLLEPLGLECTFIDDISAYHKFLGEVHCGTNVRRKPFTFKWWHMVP

IC50 [1] | IC50 [2] [nM] | Compound
39.8 to 398 nM and 398 nM | – | Cn1c(-c2cc3ccccc3n2Cc2cccnc2)nc2cc(C(=O)N3CCC[C@@H](N)C3)ccc21 [Example 15, (3R)-1-({1-Methyl-2-[1-(3-pyridinylmethyl)-1H-indol-2-yl]-1H-benzimidazol-5-yl}carbonyl)-3-piperidinamine]
39.8 to 398 nM and 398 nM | – | Cn1cc(Cn2c(-c3nc4cc(C(=O)N5CCC[C@@H](N)C5)ccc4n3C)cc3ccccc32)cn1 [Example 20b, (3R)-1-[(1-Methyl-2-{1-[(1-methyl-1H-pyrazol-4-yl)methyl]-1H-indol-2-yl}-1H-benzimidazol-5-yl)carbonyl]-3-piperidinamine]
39.8 to 398 nM and 158 nM | – | Cn1c(-c2cc3ccccc3n2Cc2ccccc2)nc2cc(C(=O)N3CCC[C@@H](N)C3)ccc21 [Example 24, (3R)-1-({1-Methyl-2-[1-(phenylmethyl)-1H-indol-2-yl]-1H-benzimidazol-5-yl}carbonyl)-3-piperidinamine]
39.8 to 398 nM and 158 nM | > 79400 | Cn1c(-c2cc3ccccc3n2CC2CC2)nc2cc(C(=O)N3CC[C@@H](O)[C@@H](N)C3)ccc21 [Example 65, ((3S,4R)-3-Amino-4-hydroxypiperidin-1-yl)(2-(1-(cyclopropylmethyl)-1H-indol-2-yl)-1-methyl-1H-benzo[d]imidazol-5-yl)methanone]
